Experimental data taken from patent US12173088B2, “Anti-microbial peptides” (priority 2018, dated 2024).
Values after ≈ are worked out from the molar mass of the structure shown. Peptide text beside a SMILES is read from it.

How the values were obtained:
S. aureus USA300 = assay: microbe, parasite or virus in culture; assay type: cell-based, Staphylococcus aureus; settings: USA300
Source text: The bacterial strains used include the Gram-positive strains Staphylococcus aureus USA300 LAC, S. epidermidis 1457, and Bacillus subtilis 168, as well as the Gram-negative isolates Escherichia coli K12 and Acinetobacter baumannii B2367-12. Additional, drug resistance strains include Gram-positive Enterococcus faecium V286-17 (VRE) and S. aureus M838-17 (MRSA) and Gram-negative E. coli E423-17, E. coli E416-17 (ampC), and P. aeruginosa E411-17. Bacteria were cultivated in tryptic soy broth (TSB) (BD Bioscience, MD).
(§1) The antibacterial activity of peptides was evaluated using a standard broth microdilution protocol with minor modifications as described (Mishra, et al. (2012) J. Am. Chem. Soc., 134:12426-12429). In brief, logarithmic phase bacterial cultures (i.e., optical density at 600 nm≈0.5) were diluted to OD600 0.001 and partitioned into a 96-well polystyrene microplate at 90 μL per well. After treatment with 10 μL of peptide solutions two fold diluted to various concentrations, microplates were incubated at 37° C. overnight and read on a ChroMate® 4300 Microplate Reader at 630 nm (GMI, Ramsey, MN). […] To study the influence of medium conditions on the antimicrobial activity of peptides against S. aureus USA300, up to 200 mM sodium chloride (NaCl), 2 mM of calcium chloride, 5-10% of human serum, mouse plasma, fluid, or supernatants of tissue homogenates were included into the assays.
(§2) The bacterial strains used include the Gram-positive bacteria methicillin-resistant Staphylococcus aureus USA300, Enterococcus faecium V286-17 (VRE), S. aureus M838-17 (MRSA) and Gram-negative bacteria E. coli E423-17, E416-7 (ampC), P. aeruginosa E411-17, PA01, K. pneumoniae E406-17, ATCC13883, and A. baumannii B26-16. Bacteria were cultivated in tryptic soy broth (TSB) from BD Bioscience.
(§3) The antibacterial activity of peptides was evaluated using a standard broth microdilution protocol with minor modifications (Mishra, et al. (2017) Acta Biomater., 49:316-328). In brief, logarithmic phase bacterial cultures (i.e., optical density at 600 nm≈0.5) were diluted to 0.001 OD and aliquoted 90 μL per well into a 96-well polystyrene microplate. Added 10 μL peptides per well with various concentrations, plates were incubated at 37° C., overnight. Post incubation the plates are read at 630 nm using a ChroMate® Microplate Reader (GMI). […] To study the influence of medium conditions on the antimicrobial activity of peptides against S. aureus USA300 at different pHs (6.8, 7.2, and 8.0), 150 mM sodium chloride (NaCl), 5-10% of human serum, mouse plasma, and peritoneal fluid were included into the assays.

P. aeruginosa PAO1 = assay type: cell-based, Pseudomonas aeruginosa
Method: as §1, §2, §3

E. coli ATCC 25922 = assay type: cell-based, Escherichia coli; settings: ATCC 25922
Method: as §1, §3

K. pneumoniae ATCC 13883 = assay type: cell-based, Klebsiella pneumoniae; settings: ATCC 13883
Method: as §1, §2, §3

[1] = test system: human red blood cells (hRBCs); assay: Hemolytic assay; assay type: cell-based
Method: Briefly, human red blood cells (hRBCs) were washed three times with phosphate buffer saline (PBS) and diluted to a 2% solution (v/v). After peptide treatment, incubation at 37° C. for one hour, and centrifugation at 5000 rpm for 10 minutes, aliquots of the supernatant were carefully transferred to a fresh 96-well microplate. The amount of hemoglobin released was measured at 545 nm. The percent lysis was calculated by assuming 100% release when human blood cells were treated with 2% Triton™ X-100, and 0% release when incubated with PBS buffer. The peptide concentration that caused 50% lysis of hRBCs is defined as HL50. The cell selectivity index (CSI) was calculated as the ratio between HL50 and MIC of the corresponding peptide against a select pathogenic species.
Hemolytic assays of peptides were performed as described (Mishra, et al. (2017) Acta Biomater., 49:316-328). Briefly, human red blood cells (hRBCs) obtained from UNMC Blood Bank. The blood washed 3× with isotonic saline (0.9% NaCl) and diluted to 2% blood cells (v/v). Peptide horine and verine at various concentrations were added into the 2% blood cells and incubated at 37° C. for 1 hour. Post incubation the plates were spun at 2000 rpm for 10 minutes, aliquots of the supernatant were carefully transferred to a fresh 96-well microplate. The amount of cells lysed is proportional to the hemoglobin released and measured at 545 nm using a ChroMate® microplate reader. The percent lysis was calculated by assuming 100% release when human blood cells were treated with 1% Triton™ X-100, and 0% release when incubated with PBS. The peptide concentration that caused 50% lysis of hRBCs is defined as HL50.

MIC S. aureus USA 300 (S. aureus USA300) [µM]	MIC P. aeruginosa PAO1 (P. aeruginosa PAO1) [µM]	MIC E. coli ATCC 25922 (E. coli ATCC 25922) [µM]	MIC K. pneumoniae (K. pneumoniae ATCC 13883) [µM]	Compound	Activity against Pseudomonas aeruginosa PAO1 (P. aeruginosa PAO1)	HL50 [1] [µM]
0.78 (≈ 1.01 µg/mL)	6.2 to 12.5	1.5 to 3.1	3.1 (≈ 4.02 µg/mL)	CC(C)C[C@H](NC(=O)[C@H](CC(C)C)NC(=O)[C@H](CCCCN)NC(=O)CNC(=O)[C@H](CC(C)C)NC(=O)[C@H](CC(C)C)NC(=O)[C@H](CO)NC(=O)[C@H](C)NC(=O)[C@H](CC(C)C)NC(=O)[C@H](CO)NC(=O)[C@H](CC(C)C)NC(=O)[C@H](CC(C)C)NC(=O)CN)C(N)=O [DFT509, GLLSLASLLGKLL] (H-GLLSLASLLGKLL-NH2; N-terminus assumed)		4
1.56 (≈ 2.02 µg/mL)	>25	>25	>25	CC(C)C[C@H](NC(=O)[C@H](CC(C)C)NC(=O)[C@H](CCCCN)NC(=O)CNC(=O)[C@H](CC(C)C)NC(=O)[C@H](C)NC(=O)[C@H](CO)NC(=O)[C@H](CC(C)C)NC(=O)[C@H](CC(C)C)NC(=O)[C@H](CO)NC(=O)[C@H](CC(C)C)NC(=O)[C@H](CC(C)C)NC(=O)CN)C(N)=O [DFT510, GLLSLLSALGKLL] (H-GLLSLLSALGKLL-NH2; N-terminus assumed)		19

More lines, now with the values behind:

Compound	MIC S. aureus USA 300 (S. aureus USA300) [µM]	MIC P. aeruginosa PAO1 (P. aeruginosa PAO1) [µM]	MIC E. coli ATCC 25922 (E. coli ATCC 25922) [µM]	MIC K. pneumoniae (K. pneumoniae ATCC 13883) [µM]	Activity against Pseudomonas aeruginosa PAO1 (P. aeruginosa PAO1)	HL50 [1] [µM]
CC(C)C[C@H](NC(=O)[C@H](CC(C)C)NC(=O)[C@H](CCCCN)NC(=O)CNC(=O)[C@H](CC(C)C)NC(=O)[C@H](CC(C)C)NC(=O)[C@H](CO)NC(=O)[C@H](CC(C)C)NC(=O)[C@H](CC(C)C)NC(=O)[C@H](CO)NC(=O)[C@H](CC(C)C)NC(=O)[C@H](C)NC(=O)CN)C(N)=O [DFT506, GALSLLSLLGKLL] (H-GALSLLSLLGKLL-NH2; N-terminus assumed)	0.78 (≈ 1.01 µg/mL)	12.5 (≈ 16.2 µg/mL)	3.1 (≈ 4.02 µg/mL)	6.2 (≈ 8.04 µg/mL)	active	4
CC(C)C[C@H](NC(=O)[C@H](CC(C)C)NC(=O)[C@H](CCCCN)NC(=O)CNC(=O)[C@H](CC(C)C)NC(=O)[C@H](CC(C)C)NC(=O)[C@H](CO)NC(=O)[C@H](CC(C)C)NC(=O)[C@H](CC(C)C)NC(=O)[C@H](CO)NC(=O)[C@H](C)NC(=O)[C@H](CC(C)C)NC(=O)CN)C(N)=O [DFT507, GLASLLSLLGKLL] (H-GLASLLSLLGKLL-NH2; N-terminus assumed)	0.78 (≈ 1.01 µg/mL)	>25	>25	>25		<3.1
CC(C)C[C@H](NC(=O)[C@H](CC(C)C)NC(=O)[C@H](CCCCN)NC(=O)CNC(=O)[C@H](CC(C)C)NC(=O)[C@H](CC(C)C)NC(=O)[C@H](CO)NC(=O)[C@H](CC(C)C)NC(=O)[C@H](C)NC(=O)[C@H](CO)NC(=O)[C@H](CC(C)C)NC(=O)[C@H](CC(C)C)NC(=O)CN)C(N)=O [DFT508, GLLSALSLLGKLL] (H-GLLSALSLLGKLL-NH2; N-terminus assumed)	0.78 (≈ 1.01 µg/mL)	>25	3.1 (≈ 4.02 µg/mL)	3.1 (≈ 4.02 µg/mL)		6
